Assays:
Human Norovirus = assay: microbe, parasite or virus in culture; format: cell-based; conditions: HG23
Poliovirus = assay: microbe, parasite or virus in culture; format: cell-based; conditions: Vero 76 cells
DENV2 = assay: microbe, parasite or virus in culture; format: cell-based, Dengue virus 2; conditions: Dengue virus, DENV2, Huh-7
A549 = assay: EIDD-2749 cytotoxicity; format: cell-based; conditions: A549 cells
ZIKV = assay: microbe, parasite or virus in culture; format: cell-based, Zika virus; conditions: Zika virus, Vero 76
La Crosse virus = assay: microbe, parasite or virus in culture; format: cell-based
H9c-2 = assay: EIDD-2749 cytotoxicity; format: cell-based; conditions: H9c-2 cells
MA-104 cells = conditions: African green monkey
Pichinde virus = assay: microbe, parasite or virus in culture; format: cell-based; conditions: Vero
[1] = Mouse PK (plasma, IP and oral); conditions: female, ICR (CD-1)
MERS = assay: microbe, parasite or virus in culture; format: cell-based, MERS coronavirus; conditions: Middle East respiratory syndrome-related coronavirus, Vero 76
RD cells = conditions: human
BxPc3 = assay: EIDD-2749 cytotoxicity; format: cell-based; conditions: BxPc3 cells
MDCK cells = conditions: dog

O=c1ccn([C@@H]2O[C@](F)(CO)[C@@H](O)[C@H]2O)c(=O)[nH]1 [EIDD-2749, 4′-fluorouridine]
EC50 (Human Norovirus): 2.7 µM | EC90 (Human Norovirus): 9.3 µM | EC50 (Poliovirus; Enterovirus C, Vero 76, Poliovirus strain Mahoney): 12.2 µM | EC50 (Poliovirus; Poliovirus strain Mahoney): 11.8 µM | EC50 (DENV2): > 380 µM | CC50 (A549): > 400 µM | EC90 (ZIKV): > 380 µM | EC50 (La Crosse virus): < 0.38 µM | CC50 (H9c-2): > 400 µM | CC50 (MA-104 cells): > 380 µM | EC90 (Pichinde virus): 0.19 µM | concentration at 24 h ([1]; ip, 10 mg/kg): 0.75 ± 0.1 µM | concentration at 24 h ([1]; po, 50 mg/kg): 2.8 ± 1.1 µM | concentration at 24 h ([1]; po, 150 mg/kg): 3.4 ± 1.3 µM | concentration at 24 h ([1]; po, 500 mg/kg): 9.8 ± 4.2 µM | EC50 (MERS): > 380 µM | CC50 (RD cells): > 380 µM | CC50 (BxPc3): > 400 µM | CC50 (MDCK cells): > 380 µM

Reference: patent US20260124226A1 (priority 2023, published 2026)
